From US20090275586A1, “HETEROCYCLIC INHIBITORS OF PDE4” (KALYPSYS, INC., priority 2006, published 2009)

Key:
[1] = biological target: T1, PDE4B (Homo sapiens, UniProt Q07343); test: PDE4 IMAP Assay; assay type: biochemical; details: 2 h; Activity at 10 μM; catalytic domain of PDE4B; read-out: PDE IMAP Assay
T1 construct: hexa-histidine (His6) (N); made in house
From the text: Compounds may be screened for functional potency in in vitro biochemical assays for their ability to inhibit the activity of phosphodiesterase (PDE) enzymes. A commercial PDE assay, Molecular Device's PDE IMAP assay, was modified and utilized to measure the inhibitory activity of compounds on PDE isoforms. The IMAP technology is based on the high affinity binding of phosphate by immobilized metal (MIII) coordination complexes on nanoparticles. This IMAP “binding reagent” complexes with phosphate groups on the nucleotide monophosphates generated in the reaction. Such binding causes a change in the rate of the molecular motion of the nucleotide, and results in an increase in the fluorescence polarization value observed for the fluorescent label attached to the substrate. PDE inhibitors prevent the generation of nucleotide monophosphates and the subsequent increase in polarization value observed for the fluorescent label attached to the substrate. The catalytic domain of PDE4B was fused to an amino-terminus hex-histadine affinity tag and purified. PDE4B enzyme was incubated with compounds for 10 minutes. Fluorescently labeled cyclic AMP substrates were then added to the PDE enzyme mix and incubated for 2 hours at room temperature. IMAP binding reagent was then added to the enzyme mix, incubated for 10-30 minutes and fluorescent polarization of the fluorescently labeled substrate was read either with the Perkin Elmer Viewlux or Molecular Devices Acquest or Analyst. Roflumilast and Rolipram are the positive controls used in the assay.

[2] = test system: PDE4; test: PDE4 Cellular CNG Assay; assay type: cell-based; details: Activity at 10 μM; HEK293 cells stably expressing the CNG channel
From the text: Compounds may be screened for functional potency in in vitro cellular assays for their ability to inhibit the activity of phosphodiesterase (PDE) enzymes. A commercial membrane potential assay, Molecular Device's membrane potential assay kit, was modified and utilized to measure the inhibitory activity of compounds on PDE isoforms in living cells. The cellular assay utilizes genetically engineered cyclic nucleotide-gated (CNG) channels as cyclic-AMP (cAMP) sensors. On binding cAMP these ion channels open, allowing the flow of cations across the plasma membrane. CNG channel activity can be monitored by measuring Ca^2+ influx in cell populations. The influx of Ca causes a change in membrane potential that is measured by voltage sensitive dyes. PDE inhibitors prevent the degradation of cAMP that is generated by adenylyl cyclases that are activated upon stimulation of G protein-coupled receptors (GPCR) linked to the cAMP pathway. In brief, Molecular Device's membrane potential dye was added to HEK293 cells stably expressing the CNG channel and incubated for 2 hours at room temperature. Test compounds were then added to the cells and incubated for 15 minutes. A GPCR agonist was then added to the cells to stimulate the cAMP pathway and incubated for 45 minutes. Fluorescent measurements were then conducted with either the Molecular Devices Acquest or Analyst. PDE inhibitors will inhibit the degradation of cAMP and cause an increase in fluorescent signal. Roflumilast and Rolipram are the positive controls used in the assay.

T1 sequence (Q07343 330-659 limits assumed, species assumed): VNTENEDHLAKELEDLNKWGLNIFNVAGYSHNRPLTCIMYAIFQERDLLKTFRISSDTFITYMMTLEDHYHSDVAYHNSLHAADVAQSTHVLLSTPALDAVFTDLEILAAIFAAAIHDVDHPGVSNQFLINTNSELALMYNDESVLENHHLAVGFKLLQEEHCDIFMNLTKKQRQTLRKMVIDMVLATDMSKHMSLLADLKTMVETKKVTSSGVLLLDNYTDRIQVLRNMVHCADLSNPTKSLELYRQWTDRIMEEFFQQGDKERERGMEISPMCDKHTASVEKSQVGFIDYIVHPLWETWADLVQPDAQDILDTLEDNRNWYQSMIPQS

inhibition at 10 µM [1] | Compound | Cellular CNG Assay [2]
≥ 50% | NC(=O)CSc1nc2sc3c(c2c(=O)n1C1CCCC1)CCCC3 [Example 1, 2-(3-Cyclopentyl-4-oxo-3,4,5,6,7,8-hexahydro-benzo[4]thieno[2,3-d]pyrimidin-2-ylsulfanyl)-acetamide] | + (+indicates Activity ≧ 50% at 10 μM)
≥ 50% | CCNc1nc(NCC)n2c(SCc3nc4ccccc4c(=O)[nH]3)nnc2n1 [Example 2, 2-((5,7-Bis(ethylamino)-[1,2,4]triazolo[4,3-a][1,3,5]-triazin-3-ylthio)methyl)quinazolin-4(3H)-one] | + (+indicates Activity ≧ 50% at 10 μM)
≥ 50% | COc1ccc(CN(Cc2ccncc2)C(=O)c2ccc3[nH]c(C)c(C)c3c2)cc1OC [Example 3, N-(3,4-dimethoxybenzyl)-2,3-dimethyl-N-(pyridin-4-ylmethyl)-1H-indole-5-carboxamide] | + (+indicates Activity ≧ 50% at 10 μM)
≥ 50% | COc1ccc(CN(C(=O)c2cccc3ccccc23)C2CCCC2)cc1OC(C)C [Example 4, N-cyclopentyl-N-(3-isopropoxy-4-methoxybenzyl)-1-naphthamide] | + (+indicates Activity ≧ 50% at 10 μM)
≥ 50% | COc1ccc(CN(C)C(=O)c2cnn(-c3nccc(-c4cccs4)n3)c2C)cc1OC [Example 5, N-(3,4-dimethoxybenzyl)-N,5-dimethyl-1-(4-(thiophen-2-yl)pyrimidin-2-yl)-1H-pyrazole-4-carboxamide] | + (+indicates Activity ≧ 50% at 10 μM)
≥ 50% | CCc1cccc(C)c1Nc1cc(NCCc2ccc(OC)c(OC)c2)ncn1 [Example 6, N4-(3,4-dimethoxyphenethyl)-N6-(2-ethyl-6-methylphenyl)pyrimidine-4,6-diamine] | + (+indicates Activity ≧ 50% at 10 μM)
≥ 50% | Cc1ccc(S(=O)(=O)c2nnn3c2nc(NC(C)C)c2sccc23)cc1 [Example 7, N-isopropyl-3-tosylthieno[2,3-e][1,2,3]triazolo[1,5-a]pyrimidin-5-amine] | − (−indicates Activity < 50% at 10 μM)
≥ 50% | CC(C)c1nc2sc3c(NCCCO)ncnc3c2c2c1COC(C)(C)C2 [Example 8, 3-(5-Isopropyl-2,2-dimethyl-1,4-dihydro-2H-3-oxa-7-thia-6,9,11-triazabenzo[c]fluoren-8-ylamino)-propan-1-ol] | + (+indicates Activity ≧ 50% at 10 μM)
≥ 50% | N#Cc1sc2nc(C3CC3)cc(-c3ccc(F)cc3)c2c1N [Example 9, 3-Amino-6-cyclopropyl-4-(4-fluorophenyl)thieno[2,3-b]pyridine-2-carbonitrile] | + (+indicates Activity ≧ 50% at 10 μM)
≥ 50% | COc1ccc(S(=O)(=O)N2CC(C)(C)Oc3ccc(NC(=O)c4cccnc4SC)cc32)cc1OC [Example 10, N-(4-(3,4-dimethoxyphenylsulfonyl)-2,2-dimethyl-3,4-dihydro-2H-benzo[b][1,4]oxazin-6-yl)-2-(methylthio)nicotinamide] | + (+indicates Activity ≧ 50% at 10 μM)
≥ 50% | COc1ccc(S(=O)(=O)N2CC(C)(C)Oc3ccc(NC(=O)c4ccccc4OC)cc32)cc1OC [Example 11, N-(4-(3,4-dimethoxyphenylsulfonyl)-2,2-dimethyl-3,4-dihydro-2H-benzo[b][1,4]oxazin-6-yl)-2-methoxybenzamide] | + (+indicates Activity ≧ 50% at 10 μM)
≥ 50% | COc1ccc(NC(=O)c2ccccc2C(F)(F)F)cc1OC1CCCC1 [Example 12, N-(3-(cyclopentyloxy)-4-methoxyphenyl)-2-(trifluoromethyl)benzamide] | + (+indicates Activity ≧ 50% at 10 μM)
≥ 50% | CSc1nc(NC2CCCCC2)c2sccc2n1 [Example 13, N-cyclohexyl-2-(methylthio)thieno[3,2-d]pyrimidin-4-amine] | + (+indicates Activity ≧ 50% at 10 μM)
≥ 50% | CCOc1ccccc1C(=O)Nc1c2c(nn1-c1cccc(Cl)c1)CS(=O)(=O)C2 [Example 14] | − (−indicates Activity < 50% at 10 μM)
≥ 50% | CC(C)n1c(=O)c(=O)n(Cc2cccc(C(F)(F)F)c2)c2cc(S(C)(=O)=O)ccc21 [Example 15, 1-Isopropyl-6-(methylsulfonyl)-4-(3-(trifluoromethyl)benzyl)quinoxaline-2,3(1H,4H)-dione] | + (+indicates Activity ≧ 50% at 10 μM)
≥ 50% | COC(=O)c1ccc(Cn2c(=O)c(=O)n(C(C)C)c3ccc(C(F)(F)F)cc32)cc1 [Example 16, Methyl 4-((4-isopropyl-2,3-dioxo-7-(trifluoromethyl)-3,4-dihydroquinoxalin-1(2H)-yl)methyl)benzoate] | + (+indicates Activity ≧ 50% at 10 μM)
≥ 50% | CCOC(=O)N1CCN(C(=O)c2cnn3c(C(F)(F)F)cc(-c4ccc(OC)c(OC)c4)nc23)CC1 [Example 17, Ethyl 4-(5-(3,4-dimethoxyphenyl)-7-(trifluoromethyl)pyrazolo[1,5-a]pyrimidine-3-carbonyl)piperazine-1-carboxylate] | + (+indicates Activity ≧ 50% at 10 μM)
≥ 50% | COc1ccc(-c2cc(C(F)(F)F)n3ncc(C(=O)Nc4cccc(CCC#N)c4)c3n2)cc1OC [Example 18, N-(3-(2-cyanoethyl)phenyl)-5-(3,4-dimethoxyphenyl)-7-(trifluoromethyl)pyrazolo[1,5-a]pyrimidine-3-carboxamide] | + (+indicates Activity ≧ 50% at 10 μM)
≥ 50% | O=C(c1cccc(N2CCNC2=O)c1)N(CCC1=CCCCC1)Cc1cc2cc3c(cc2nc1N1CCOCC1)OCO3 [Example 19, N-(2-cyclohexenylethyl)-N-((6-morpholino-[1,3]dioxolo[4,5-g]quinolin-7-yl)methyl)-3-(2-oxoimidazolidin-1-yl)benzamide] | + (+indicates Activity ≧ 50% at 10 μM)
≥ 50% | CCOc1ncccc1C(=O)Nc1ccc(S(=O)(=O)Nc2nccs2)cc1 [Example 20, 2-Ethoxy-N-(4-(N-thiazol-2-ylsulfamoyl)phenyl)nicotinamide] | + (+indicates Activity ≧ 50% at 10 μM)
≥ 50% | O=c1n(Cc2ccncc2)nc2c3ccccc3nc(C3CC3)n12 [Example 21, 5-Cyclopropyl-2-(pyridin-4-ylmethyl)-[1,2,4]triazolo[4,3-c]quinazolin-3(2H)-one] | + (+indicates Activity ≧ 50% at 10 μM)
≥ 50% | COc1ccc(-c2cnnn2-c2ccc(NC(=O)c3c(F)cccc3F)cc2)cc1OC [Example 22, N-(4-(5-(3,4-dimethoxyphenyl)-1H-1,2,3-triazol-1-yl)phenyl)-2,6-difluorobenzamide] | + (+indicates Activity ≧ 50% at 10 μM)
≥ 50% | COc1ccc(-c2cnnn2-c2ccc(NC(=O)c3ccc4c(c3)OCO4)cc2)cc1OC [Example 23, N-(4-(5-(3,4-dimethoxyphenyl)-1H-1,2,3-triazol-1-yl)phenyl)benzo[d][1,3]dioxole-5-carboxamide] | + (+indicates Activity ≧ 50% at 10 μM)
≥ 50% | COc1ccc(-c2cn3ccnc3c(NCc3ccccc3)n2)cc1OC [Example 24, N-benzyl-6-(3,4-dimethoxyphenyl)imidazo[1,2-a]pyrazin-8-amine] | –
≥ 50% | Cc1c(Cc2ccccc2)c(N2CCNCC2)n2c(nc3ccccc32)c1C#N [Example 25, 2-Benzyl-3-methyl-1-piperazin-1-yl-benzo[4,5]imidazo[2-a]pyridine-4-carbonitrile] | − (−indicates Activity < 50% at 10 μM)
≥ 50% | CC(C)CCn1c(=O)c2ccccc2n2c(CN3CCN(c4ncccn4)CC3)nnc12 [Example 26, 4-Isopentyl-1-((4-(pyrimidin-2-yl)piperazin-1-yl)methyl)-[1,2,4]triazolo[4,3-a]quinazolin-5(4H)-one] | + (+indicates Activity ≧ 50% at 10 μM)
